This passage reports EC50 and CC50 results from US8431588B2, “Cyclopropyl polymerase inhibitors” (Janssen Products, LP, priority 2008, dated 2013).

Like-named read-outs stand apart in the source and are kept apart here.

Series [1] deals with HCV type 1b replicon in Huh-7 luc/neo (Huh-Luc) cells. The experiment in a line: HCV replicon assay (Huh-Luc, luciferase readout). The class given is cell-based. The settings on record: Hepatitis C virus, Huh-7, 72 h, read-out: EC50 (replicon). The text has this: The compounds of formula I were examined for activity in the inhibition of HCV RNA replication in a cellular assay aimed at identifying compounds that inhibit a HCV functional cellular replicating cell line, also known as HCV replicons. The cellular assay was based on a bicistronic expression construct, as described by Lohmann et al. (1999), Science vol. 285 pp. 110-113 with modifications described by Krieger et al. (2001), Journal of Virology 75: 4614-4624, in a multi-target screening strategy.
The assay utilized the stably transfected cell line Huh-7 luc/neo (hereafter referred to as Huh-Luc). This cell line harbors an RNA encoding a bicistronic expression construct comprising the wild type NS3-NS5B regions of HCV type 1b translated from an Internal Ribosome Entry Site (IRES) from encephalomyocarditis virus (EMCV), preceded by a reporter portion (FfL-luciferase), and a selectable marker portion (neo^R, neomycine phosphotransferase). The construct is bordered by 5′ and 3′ NTRs (non-translated regions) from HCV type 1b. Continued culture of the replicon cells in the presence of G418 (neo^R) is dependent on the replication of the HCV RNA. The stably transfected replicon cells that express HCV RNA, which replicates autonomously and to high levels, encoding inter alia luciferase, were used for screening the antiviral compounds.
The replicon cells were plated in 384 well plates in the presence of the test and control compounds which were added in various concentrations. Following an incubation of three days, HCV replication was measured by assaying luciferase activity (using standard luciferase assay substrates and reagents and a Perkin Elmer ViewLux™ ultraHTS microplate imager). Replicon cells in the control cultures have high luciferase expression in the absence of any inhibitor. The inhibitory activity of the compound on luciferase activity was monitored on the Huh-Luc cells, enabling a dose-response curve for each test compound. EC50 values were then calculated, which value represents the amount of the compound required to decrease the level of detected luciferase activity by 50%, or more specifically, the ability of the genetically linked HCV replicon RNA to replicate.
(In general: In antiviral work, replicon cells carry a viral genome segment that copies itself.)

The nature of series [2]: Cellular toxicity in the Huh7-CMV-Luc replicon assay. The class given is cell-based. The settings on record: human; Huh7-CMV-Luc cells, three days incubation, Luc activity. The protocol: Cellular toxicity was determined in the Huh7-CMV-Luc replicon assay. Replicon cells (2500 cells/well), stably transformed with a luciferase reporter gene under control of the cytomegalovirus (CMV) constitutive promotor, were cultured in the presence or absence of test compound concentrations. After three days of incubation at 37° C. in a humidified 5% CO2 atmosphere, cell proliferation was quantified by measuring the Luc activity, and expressed as CC50 values (cytotoxicity, 50% inhibitory concentration of cell growth). Tests were performed in 384-well plates.

Series [3] concerns wild type human immunodeficiency virus (HIV) strain IIIB. The experiment in a line: microbe, parasite or virus in culture. The series is classed as cell-based, HIV-1. The settings on record: read-out: EC50 (IIIB). The protocol:
Compounds of the invention were tested for their potency against wild type human immunodeficiency virus (HIV). Antiviral activity was evaluated using a cellular assay performed according to the following procedure. The human T-cell line MT4 was engineered with Green Fluorescent Protein (GFP) and a HIV-specific promoter, HIV-1 long terminal repeat (LTR). This cell line, designated MT4 LTR-EGFP, can be used for the in vitro evaluation of anti-HIV activity of investigational compounds. In HIV-1 infected cells, the Tat protein is produced, which upregulates the LTR promotor and eventually leads to stimulation of the GFP reporter production, allowing to measure ongoing HIV-infection fluorometrically. Effective concentration values such as 50% effective concentration (EC50) can be determined and are usually expressed in μM. An EC50 value is defined as the concentration of test compound that reduces the fluorescence of HIV-infected cells by 50%. Monitoring of HIV-1 infection was done using a scanning microscope. Image analysis allows very sensitive detection of viral infection. Measurements were done before cell necrosis, which usually takes place about five days after infection, in particular measurements were performed three days after infection. The column IIIB in the table list the EC50 values against the wild type strain IIIB.

Setting [4] is: Huh-Luc replicon cells, three days incubation, luciferase activity.
The mark [5] stands for this setting: Human immunodeficiency virus 1, 72 h, wild type strain IIIB, MT4 LTR-EGFP cells, three days after infection.

As usually defined, the EC50 is the concentration that produces a half-maximal response. As usually defined, the CC50 is the concentration giving 50% cytotoxicity. Higher therefore signals better tolerance by the cells. Take `Nc1ccn([C@@H]2O[C@H](CO)[C@@H](O)C23CC3)c(=O)n1` [Compound 1, 4-Amino-1-(7-hydroxy-6-hydroxymethyl-5-oxa-spiro[2.4]hept-4-yl)-1H-pyrimidin-2-one]: the EC50 was 8.4 µM in series [1] (setting [4]) and more than 98 µM in series [3] (setting [5]). Moreover, in series [2], the CC50 at 3 days was more than 98 µM.

Turning to `C[C@H](NP(=O)(OC[C@H]1O[C@@H](n2ccc(N)nc2=O)C2(CC2)[C@@H]1O)Oc1ccccc1)C(=O)OCc1ccccc1` (stereo partly drawn) [Compound 2a, (2S)-benzyl 2-((((4R,6R,7S)-4-(4-amino-2-oxopyrimidin-1(2H)-yl)-7-hydroxy-5-oxaspiro[2.4]heptan-6-yl)methoxy)((phenoxy)phosphoryl)amino)propanoate], the EC50 is 15.3 µM in series [1] (setting [4]) and more than 98 µM in series [3] (setting [5]). In addition, the CC50 at 3 days in series [2] is more than 98 µM.

As for `C[C@H](NP(=O)(OC[C@H]1O[C@@H](n2ccc(N)nc2=O)C2(CC2)[C@@H]1O)Oc1ccc(Cl)cc1)C(=O)OCc1ccccc1` (stereo partly drawn) [Compound 2b, (2S)-benzyl 2-((((4R,6R,7S)-4-(4-amino-2-oxopyrimidin-1(2H)-yl)-7-hydroxy-5-oxaspiro[2.4]heptan-6-yl)methoxy)(4-chlorophenoxy)phosphorylamino)propanoate], the EC50 in series [1] (setting [4]) is 26.3 µM; in series [3] (setting [5]), more than 98 µM. Further, the CC50 at 3 days in series [2] is more than 98 µM.

On to `CCOC(=O)[C@H](Cc1ccccc1)NP(=O)(OC[C@H]1O[C@@H](n2ccc(N)nc2=O)C2(CC2)[C@@H]1O)Oc1ccccc1` (stereo partly drawn) [Compound 2c, (2S)-ethyl 2-((((4R,6R,7S)-4-(4-amino-2-oxopyrimidin-1(2H)-yl)-7-hydroxy-5-oxaspiro[2.4]heptan-6-yl)methoxy)(phenoxy)phosphorylamino)-3-phenylpropanoate], for which the half-maximal effective concentration (EC50) is not below 98 µM in series [1] and more than 98 µM in series [3] (setting [5]). In series [2], this compound displayed a CC50 at 3 days of more than 98 µM.

As for `COC(=O)[C@H](C)NP(=O)(OC[C@H]1O[C@@H](n2ccc(N)nc2=O)C2(CC2)[C@@H]1O)Oc1ccccc1` (stereo partly drawn) [Compound 2d, (2S)-methyl 2-((((4R,6R,7S)-4-(4-amino-2-oxopyrimidin-1(2H)-yl)-7-hydroxy-5-oxaspiro[2.4]heptan-6-yl)methoxy)(phenoxy)phosphorylamino)propanoate], the half-maximal effective concentration (EC50) in series [1] (setting [4]) was 63.1 µM; in series [3] (setting [5]) it was more than 98 µM. Further, in series [2], the CC50 at 3 days is more than 98 µM.

Turning to `CC(C)C(=O)OC[C@H]1O[C@@H](n2ccc(N)nc2=O)C2(CC2)[C@@H]1OC(=O)C(C)C` [Compound 3, (4R,6R,7S)-4-(4-amino-2-oxopyrimidin-1(2H)-yl)-6-(isobutyryl-oxymethyl)-5-oxaspiro[2.4]heptan-7-yl isobutyrate], the EC50 is 27.2 µM in series [1] (setting [4]) and more than 98 µM in series [3] (setting [5]). In series [2], this compound registered a CC50 at 3 days of more than 98 µM.

Take `CC(C)C(=O)OC[C@H]1O[C@@H](n2ccc(N)nc2=O)C2(CC2)[C@@H]1O` [Compound 4, ((4R,6R,7S)-4-(4-amino-2-oxopyrimidin-1(2H)-yl)-7-hydroxy-5-oxaspiro[2.4]heptan-6-yl)methyl isobutyrate]: the EC50 in series [1] (setting [4]) was 9.2 µM; in series [3] (Human immunodeficiency virus 1, IIIB, 72 h), more than 98 µM. In addition, the CC50 at 3 days in series [2] was more than 98 µM.

Turning to `CC(C)C(=O)O[C@@H]1[C@@H](CO)O[C@@H](n2ccc(N)nc2=O)C12CC2` [Compound 5, (4R,6R,7S)-4-(4-amino-2-oxopyrimidin-1(2H)-yl)-6-(hydroxymethyl)-5-oxaspiro[2.4]heptan-7-yl isobutyrate], the EC50 is 42.5 µM in series [1] (setting [4]) and more than 98 µM in series [3] (setting [5]). Also, the CC50 at 3 days in series [2] is more than 98 µM.
